pIC50: −log10 of the molar value. Where a name gives a salt, the structure may show the parent alone.
Assay: Inhibition of binding of [125I]-CCK-8 to the cholecystokinin type B receptor

With `Cc1cccc(NC(=O)NC2N=C(c3ccccc3)c3ccccc3N(Cc3nnc(C)[nH]3)C2=O)c1` (configuration not stated) [1-[1-(5-Methyl-4H-[1,2,4]triazol-3-ylmethyl)-2-oxo-5-phenyl-2,3-dihydro-1H-benzo[e][1,4]diazepin-3-yl]-3-m-tolyl-urea] the pIC50 was 8.01.

`CN1C(=O)C(NC(=O)NCc2cccc(C(C)(C)O)c2)N=C(c2ccccc2)c2ccccc21` (configuration not stated) [1-[3-(1-Hydroxy-1-methyl-ethyl)-benzyl]-3-(1-methyl-2-oxo-5-phenyl-2,3-dihydro-1H-benzo[e][1,4]diazepin-3-yl)-urea] gave a pIC50 of 8.23.

`CN1C(=O)C(NC(=O)NC(C)(C)C)N=C(c2ccccc2)c2ccccc21` (configuration not stated) [1-tert-Butyl-3-(1-methyl-2-oxo-5-phenyl-2,3-dihydro-1H-benzo[e][1,4]diazepin-3-yl)-urea] showed a pIC50 of 4.42.

`Cc1cccc(NC(=O)NC2N=C(c3ccccc3)c3ccccc3N(CC(=O)N3CCN(C)CC3)C2=O)c1` (configuration not stated) [1-{1-[2-(4-Methyl-piperazin-1-yl)-2-oxo-ethyl]-2-oxo-5-phenyl-2,3-dihydro-1H-benzo[e][1,4]diazepin-3-yl}-3-m-tolyl-urea; hydrochloride] showed a pIC50 of 8.46.

Work on `Cc1cccc(NC(=O)NC2N=C(c3ccccc3)c3ccccc3N(CC(=O)ON3CCC[C@@H]3C(=O)O)C2=O)c1` (some centres not stated) [1-{2-[2-Oxo-5-phenyl-3-(3-m-tolyl-ureido)-2,3-dihydro-benzo[e][1,4]diazepin-1-yl]-acetoxy}-pyrrolidine-2-carboxylic acid] yielded a pIC50 of 6.89.

With `Cc1cccc(NC(=O)NC2N=C(c3ccccc3)c3ccccc3N(CC(=O)Nc3ccncc3)C2=O)c1` (configuration not stated) [2-[2-Oxo-5-phenyl-3-(3-m-tolyl-ureido)-2,3-dihydro-benzo[e][1,4]diazepin-1-yl]-N-pyridin-4-yl-acetamide] the pIC50 was 7.32.

Work on `Cc1ccc(NC(=O)NC2N=C(c3ccccc3)c3ccccc3N(CC(=O)Nc3ccncc3)C2=O)cc1` (configuration not stated) [2-[2-Oxo-5-phenyl-3-(3-p-tolyl-ureido)-2,3-dihydro-benzo[e][1,4]diazepin-1-yl]-N-pyridin-4-yl-acetamide] yielded a pIC50 of 6.72.

`CCN(CC)C(=O)CN1C(=O)C(NC(=O)Nc2ccccc2Cl)N=C(c2ccccc2)c2ccccc21` (configuration not stated) [2-{3-[3-(2-Chloro-phenyl)-ureido]-2-oxo-5-phenyl-2,3-dihydro-benzo[e][1,4]diazepin-1-yl}-N,N-diethyl-acetamide] showed a pIC50 of 8.42.

In the case of `CCN(CC)C(=O)CN1C(=O)C(NC(=O)Nc2ccc(Cl)cc2)N=C(c2ccccc2)c2ccccc21` (configuration not stated) [2-{3-[3-(4-Chloro-phenyl)-ureido]-2-oxo-5-phenyl-2,3-dihydro-benzo[e][1,4]diazepin-1-yl}-N,N-diethyl-acetamide], the pIC50 was 9.22.

In the case of `CCN(CC)C(=O)C(C)N1C(=O)C(NC(=O)Nc2ccc(Cl)cc2)N=C(c2ccccc2)c2ccccc21` (configuration not stated) [2-{3-[3-(4-Chloro-phenyl)-ureido]-2-oxo-5-phenyl-2,3-dihydro-benzo[e][1,4]diazepin-1-yl}-N,N-diethyl-propionamide], the pIC50 was 7.66.

For `CCNC(=O)CN1C(=O)C(NC(=O)Nc2ccc(Cl)cc2)N=C(c2ccccc2)c2ccccc21` (configuration not stated) [2-{3-[3-(4-Chloro-phenyl)-ureido]-2-oxo-5-phenyl-2,3-dihydro-benzo[e][1,4]diazepin-1-yl}-N-ethyl-acetamide], the pIC50 was 7.96.

Work on `CN1C(=O)C(NC(=O)Nc2cccc(C(=O)O)c2)N=C(c2ccccc2)c2ccccc21` (configuration not stated) [3-[3-(1-Methyl-2-oxo-5-phenyl-2,3-dihydro-1H-benzo[e][1,4]diazepin-3-yl)-ureido]-benzoic acid] yielded a pIC50 of 8.01.

In the case of `COC(=O)c1cccc(NC(=O)N[C@@H]2N=C(c3ccccc3)c3ccccc3N(C)C2=O)c1` [3-[3-((R)-1-Methyl-2-oxo-5-phenyl-2,3-dihydro-1H-benzo[e][1,4]diazepin-3-yl)-ureido]-benzoic acid methyl ester], the pIC50 was 8.10.

In the case of `CCOC(=O)CCN1C(=O)C(NC(=O)Nc2cccc(OC)c2)N=C(c2ccccc2)c2ccccc21` (configuration not stated) [3-{3-[3-(3-Methoxy-phenyl)-ureido]-2-oxo-5-phenyl-2,3-dihydro-benzo[e][1,4]diazepin-1-yl}-propionic acid ethyl ester], the pIC50 was 9.00.

Work on `COc1cccc(NC(=O)NC2N=C(c3ccccc3)c3ccccc3N(CCC(=O)O)C2=O)c1` (configuration not stated) [3-{3-[3-(3-Methoxy-phenyl)-ureido]-2-oxo-5-phenyl-2,3-dihydro-benzo[e][1,4]diazepin-1-yl}-propionic acid] yielded a pIC50 of 6.60.

Work on `CCOC(=O)CCN1C(=O)C(NC(=O)Nc2ccc(Cl)cc2)N=C(c2ccccc2)c2ccccc21` (configuration not stated) [3-{3-[3-(4-Chloro-phenyl)-ureido]-2-oxo-5-phenyl-2,3-dihydro-benzo[e][1,4]diazepin-1-yl}-propionic acid ethyl ester] yielded a pIC50 of 8.23.

Work on `CN1C(=O)C(NC(=O)Nc2ccc(C(=O)O)cc2)N=C(c2ccccc2)c2ccccc21` (configuration not stated) [4-[3-(1-Methyl-2-oxo-5-phenyl-2,3-dihydro-1H-benzo[e][1,4]diazepin-3-yl)-ureido]-benzoic acid] yielded a pIC50 of under 7.00.

`CN1C(=O)C(NC(N)=O)N=C(c2ccccc2)c2ccccc21` (configuration not stated) [(1-Methyl-2-oxo-5-phenyl-2,3-dihydro-1H-benzo[e][1,4]diazepin-3-yl)-urea] gave a pIC50 of under 4.00.

Molecule `COc1cccc(NC(=O)NC2N=C(c3ccccc3)c3ccccc3N(CC[N+](C)(C)C)C2=O)c1` (configuration not stated) [(2-{3-[3-(3-Methoxy-phenyl)-ureido]-2-oxo-5-phenyl-2,3-dihydro-benzo[e][1,4]diazepin-1-yl}-ethyl)-trimethyl-ammonium; iodide] has a pIC50 of 5.96.

For `CN1C(=O)C(NC(=O)Nc2ccc(Cl)cc2)N=C(c2ccccc2)c2ccccc21` [(R)-1-(4-Chloro-phenyl)-3-(1-methyl-2-oxo-5-phenyl-2,3-dihydro-1H-benzo[e][1,4]diazepin-3-yl)-urea], the pIC50 was 7.09.

Molecule `CCN(CC)CC(=O)OCCN1C(=O)C(NC(=O)Nc2cccc(C)c2)N=C(c2ccccc2)c2ccccc21` (configuration not stated) [Diethylamino-acetic acid 2-[2-oxo-5-phenyl-3-(3-m-tolyl-ureido)-2,3-dihydro-benzo[e][1,4]diazepin-1-yl]-ethyl ester] has a pIC50 of 8.25.

With `CCN(CC)C(=O)CN1C(=O)C(NC(=O)Nc2cccc(OC)c2)N=C(c2ccccc2)c2ccccc21` (configuration not stated) [N,N-Diethyl-2-{3-[3-(3-methoxy-phenyl)-ureido]-2-oxo-5-phenyl-2,3-dihydro-benzo[e][1,4]diazepin-1-yl}-acetamide] the pIC50 was 9.66.

`O=C(CN1C(=O)C(NC(=O)Nc2ccc(Cl)cc2)N=C(c2ccccc2)c2ccccc21)NCc1ccccc1` (configuration not stated) [N-Benzyl-2-{3-[3-(4-chloro-phenyl)-ureido]-2-oxo-5-phenyl-2,3-dihydro-benzo[e][1,4]diazepin-1-yl}-acetamide] gave a pIC50 of 6.99.

For `Cc1cccc(NC(=O)NC2N=C(c3ccccc3)c3ccccc3N(CCOC(=O)CCC(=O)O)C2=O)c1` (configuration not stated) [Succinic acid mono-{2-[2-oxo-5-phenyl-3-(3-m-tolyl-ureido)-2,3-dihydro-benzo[e][1,4]diazepin-1-yl]-ethyl} ester], the pIC50 was 8.14.

In the case of `Cc1cccc(NC(=O)NC2N=C(c3ccccc3)c3ccccc3N(CC(=O)O)C2=O)c1` (configuration not stated) [[2-Oxo-5-phenyl-3-(3-m-tolyl-ureido)-2,3-dihydro-benzo[e][1,4]diazepin-1-yl]-acetic acid], the pIC50 was 6.42.

`CCOC(=O)CN1C(=O)C(NC(=O)c2ccccc2Cl)N=C(c2ccccc2F)c2ccccc21` (configuration not stated) [[3-(2-Chloro-benzoylamino)-5-(2-fluoro-phenyl)-2-oxo-2,3-dihydro-benzo[e][1,4]diazepin-1-yl]-acetic acid ethyl ester] showed a pIC50 of 5.49.

`CCOC(=O)CN1C(=O)C(NC(=O)N[C@@H](C)c2ccccc2)N=C(c2ccccc2)c2ccccc21` (some centres not stated) [{2-Oxo-5-phenyl-3-[3-(1-phenyl-ethyl)-ureido]-2,3-dihydro-benzo[e][1,4]diazepin-1-yl}-acetic acid ethyl ester] showed a pIC50 of under 7.00.

Work on `CN1C(=O)C(NC(=O)Nc2cccc(CNC(=O)OC(C)(C)C)c2)N=C(c2ccccc2)c2ccccc21` (configuration not stated) [{3-[3-(1-Methyl-2-oxo-5-phenyl-2,3-dihydro-1H-benzo[e][1,4]diazepin-3-yl)-ureido]-benzyl}-carbamic acid tert-butyl ester] yielded a pIC50 of 6.77.

Molecule `COC(=O)Cc1cccc(NC(=O)NC2N=C(c3ccccc3)c3ccccc3N(C)C2=O)c1` (configuration not stated) [{3-[3-(1-Methyl-2-oxo-5-phenyl-2,3-dihydro-1H-benzo[e][1,4]diazepin-3-yl)-ureido]-phenyl}-acetic acid methyl ester] has a pIC50 of 7.48.

For `CN1C(=O)C(NC(=O)Nc2cccc(CC(=O)O)c2)N=C(c2ccccc2)c2ccccc21` (configuration not stated) [{3-[3-(1-Methyl-2-oxo-5-phenyl-2,3-dihydro-1H-benzo[e][1,4]diazepin-3-yl)-ureido]-phenyl}-acetic acid], the pIC50 was 8.31.

`O=C(Nc1ccc(Cl)cc1)NC1N=C(c2ccccc2)c2ccccc2N(CC(=O)OCc2ccccc2)C1=O` (configuration not stated) [{3-[3-(4-Chloro-phenyl)-ureido]-2-oxo-5-phenyl-2,3-dihydro-benzo[e][1,4]diazepin-1-yl}-acetic acid benzyl ester] showed a pIC50 of 7.36.

With `O=C(O)CN1C(=O)C(NC(=O)Nc2ccc(Cl)cc2)N=C(c2ccccc2)c2ccccc21` (configuration not stated) [{3-[3-(4-Chloro-phenyl)-ureido]-2-oxo-5-phenyl-2,3-dihydro-benzo[e][1,4]diazepin-1-yl}-acetic acid] the pIC50 was 7.14.

Reference: BindingDB's records for doi:10.1021/jm00078a018 (Merck Research Laboratories, 1994)
